Test results taken from patent publication US20260297081A1, “COMPOUNDS AND METHODS OF TREATING CANCERS” (Cullgen Inc., priority 2023, published 2026).

Columns and labels:
Type in all cases: cell-based
[1] = tested on: T47D cells; assay: Anti-proliferation (viability) of ER+ breast cancer T47D cells, 6 days (Table 7, FIG. 2B); settings: Homo sapiens, 144 h; T47D cells, 6 days, 10-point serial dilution; read-out: GI IC50 in T47D
Procedure, shortened: (§1)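 Cells were exposed to heterobifunctional compounds across a 10-point serial dilution, for 3 days with Calu-1 and 6 days with T47D. A negative control was included that keeps the DDB1 ligand and linker but carries a modified warhead that impairs CDK4 binding.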

[2] = tested on: MCF7 cells; assay: Anti-proliferation (viability) of MCF7 cells (Table 7, FIG. 2B); settings: Homo sapiens, MCF7, MCF7 cells, 3-6 days, 10-point serial dilution; read-out: GI IC50 in MCF-7
[3] = biological target: CDK4 (Homo sapiens, UniProt P11802+Q16531); assay: CDK4 percentage degradation in Calu-1 cells (Table 6); parameters: Cells that express cyclin D1-3 and CDK4/6 proteins were treated with heterobifunctional compounds; endogenous in cells; host or cells: Calu-1; settings: 16 hours; for inhibition at 0.04 µM: 40 nM; for inhibition at 0.2 µM: 200 nM
Procedure, shortened: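 Percentage degradation of Cyclin D1 and CDK4 derived from densitometry of ECL Western blots on lysates of Calu-1 cells. Treatment was 16 h with compound at either 40 nM or 200 nM.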

[4] = tested on: Calu-1 cells; assay: Anti-proliferation (viability) of NSCLC Calu-1 cells, 3 days (Table 7, FIG. 2B); settings: Homo sapiens, 72 h; Calu-1 cells, 3 days, 10-point serial dilution; read-out: GI IC50 in Calu-1
Procedure, shortened: as §1

Sequence of CDK4 (P11802 2-303 limits assumed): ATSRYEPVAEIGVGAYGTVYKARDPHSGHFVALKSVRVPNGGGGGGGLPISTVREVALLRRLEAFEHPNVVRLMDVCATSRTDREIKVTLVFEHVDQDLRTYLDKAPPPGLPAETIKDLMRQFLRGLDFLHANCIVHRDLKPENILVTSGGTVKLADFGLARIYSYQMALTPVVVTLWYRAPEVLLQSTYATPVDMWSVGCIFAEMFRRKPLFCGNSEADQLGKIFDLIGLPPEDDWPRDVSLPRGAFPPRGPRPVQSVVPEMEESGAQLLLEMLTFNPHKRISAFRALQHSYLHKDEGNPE
Sequence of CDK4 (P24385 whole entry partner): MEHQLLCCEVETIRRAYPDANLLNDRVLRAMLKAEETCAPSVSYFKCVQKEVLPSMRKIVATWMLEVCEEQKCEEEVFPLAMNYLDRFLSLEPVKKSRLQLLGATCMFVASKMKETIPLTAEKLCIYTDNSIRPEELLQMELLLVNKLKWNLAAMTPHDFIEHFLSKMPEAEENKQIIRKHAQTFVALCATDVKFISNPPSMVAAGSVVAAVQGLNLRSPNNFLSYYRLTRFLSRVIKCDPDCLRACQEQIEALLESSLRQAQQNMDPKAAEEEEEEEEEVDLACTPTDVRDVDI
Sequence of CDK4 (Q16531 2-1140 limits assumed): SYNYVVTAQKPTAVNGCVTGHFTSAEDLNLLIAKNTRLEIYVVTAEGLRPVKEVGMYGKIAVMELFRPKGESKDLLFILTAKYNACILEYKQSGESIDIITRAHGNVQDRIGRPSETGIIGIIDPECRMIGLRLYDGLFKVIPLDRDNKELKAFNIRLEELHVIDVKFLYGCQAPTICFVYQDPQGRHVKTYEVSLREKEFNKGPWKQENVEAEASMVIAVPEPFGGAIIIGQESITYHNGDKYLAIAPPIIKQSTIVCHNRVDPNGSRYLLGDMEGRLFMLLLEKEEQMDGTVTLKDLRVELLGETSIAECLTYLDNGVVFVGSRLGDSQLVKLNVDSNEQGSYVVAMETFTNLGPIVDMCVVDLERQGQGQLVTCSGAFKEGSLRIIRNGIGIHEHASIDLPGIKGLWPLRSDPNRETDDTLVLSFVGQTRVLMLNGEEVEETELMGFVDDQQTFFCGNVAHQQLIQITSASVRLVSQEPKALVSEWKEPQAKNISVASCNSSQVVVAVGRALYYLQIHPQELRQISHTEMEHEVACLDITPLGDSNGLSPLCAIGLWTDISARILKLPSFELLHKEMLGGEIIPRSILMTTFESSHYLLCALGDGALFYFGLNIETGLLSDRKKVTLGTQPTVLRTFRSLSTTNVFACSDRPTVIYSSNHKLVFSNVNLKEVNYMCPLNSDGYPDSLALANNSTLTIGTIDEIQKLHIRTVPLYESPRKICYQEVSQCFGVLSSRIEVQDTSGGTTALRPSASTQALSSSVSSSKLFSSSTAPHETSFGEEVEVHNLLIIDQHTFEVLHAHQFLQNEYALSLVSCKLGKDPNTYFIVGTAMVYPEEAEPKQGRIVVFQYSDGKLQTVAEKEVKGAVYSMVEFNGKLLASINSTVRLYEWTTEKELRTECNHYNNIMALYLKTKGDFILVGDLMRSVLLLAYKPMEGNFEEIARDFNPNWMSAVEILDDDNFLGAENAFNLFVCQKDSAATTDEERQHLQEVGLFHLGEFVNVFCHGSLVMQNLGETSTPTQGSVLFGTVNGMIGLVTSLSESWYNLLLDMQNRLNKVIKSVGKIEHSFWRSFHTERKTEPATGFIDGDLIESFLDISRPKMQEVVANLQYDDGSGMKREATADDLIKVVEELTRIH

Row | Structure (SMILES) | IC50 [1] | IC50 [2] | inhibition at 0.04 µM [3] | inhibition at 0.2 µM [3] | IC50 [4]
1 | CNc1ccc(C(=O)Nc2ccc(N(C)C)nn2)c(NC2CCC(CCNC(=O)CN3CCN(c4ccc(Nc5ncc6c(C)c(C(C)=O)c(=O)n(C7CCCC7)c6n5)nc4)CC3)C2)n1 (stereo not drawn) [CPD-136, 2-((3-(2-(2-(4-(6-((6-Acetyl-8-cyclopentyl-5-methyl-7-oxo-7,8-dihydropyrido[2,3-d]pyrimidin-2-yl)amino)pyridin-3-yl)piperazin-1-yl)acetamido)ethyl)cyclopentyl)amino)-N-(6-(dimethylamino)pyridazin-3-yl)-6-(methylamino)nicotinamide] | 50 to 100 nM | > 100 nM | 50 to 80% | 50 to 80% | ≤ 10 nM
2 | CNc1ccc(C(=O)Nc2ccc3c(ccn3C)n2)c(NCCCCCNC(=O)CN2CCN(c3ccc(Nc4ncc5c(C)c(C(C)=O)c(=O)n(C6CCCC6)c5n4)nc3)CC2)n1 [CPD-33, 2-((5-(2-(4-(6-((6-Acetyl-8-cyclopentyl-5-methyl-7-oxo-7,8-dihydropyrido[2,3-d]pyrimidin-2-yl)amino)pyridin-3-yl)piperazin-1-yl)acetamido)pentyl)amino)-N-(1-methyl-1H-pyrrolo[3,2-b]pyridin-5-yl)-6-(methylamino)nicotinamide] | 50 to 100 nM | > 100 nM | 50 to 80% | > 80% | 10 to 50 nM
3 | CNc1ccc(C(=O)Nc2cn(C)c(C3CC3)n2)c(NC2CC3(CC(NC(=O)CN4CCN(c5ccc(Nc6ncc7c(C)c(C(C)=O)c(=O)n(C8CCCC8)c7n6)nc5)CC4)C3)C2)n1 (stereo not drawn) [CPD-135, 2-((6-(2-(4-(6-((6-Acetyl-8-cyclopentyl-5-methyl-7-oxo-7,8-dihydropyrido[2,3-d]pyrimidin-2-yl)amino)pyridin-3-yl)piperazin-1-yl)acetamido)spiro[3.3]heptan-2-yl)amino)-N-(2-cyclopropyl-1-methyl-1H-imidazol-4-yl)-6-(methylamino)nicotinamide] | ≥ 100 nM | < 50 nM | 30 to 50% | 50 to 80% | 10 to 50 nM
4 | CNc1ccc(C(=O)Nc2ccc3ncn(C)c3n2)c(NCCCCCNC(=O)CN2CCN(c3ccc(Nc4ncc5c(C)c(C(C)=O)c(=O)n(C6CCCC6)c5n4)nc3)CC2)n1 [CPD-38, 2-((5-(2-(4-(6-((6-Acetyl-8-cyclopentyl-5-methyl-7-oxo-7,8-dihydropyrido[2,3-d]pyrimidin-2-yl)amino)pyridin-3-yl)piperazin-1-yl)acetamido)pentyl)amino)-N-(3-methyl-3H-imidazo[4,5-b]pyridin-5-yl)-6-(methylamino)nicotinamide] | 50 to 100 nM | > 100 nM | 50 to 80% | > 80% | ≤ 10 nM
5 | CC(=O)c1c(C)c2cnc(Nc3ccc(N4CCN(CC(=O)NCCCCCNc5nc(NC(C)C)ccc5C(=O)Nc5ccc(N(C)C)nn5)CC4)cn3)nc2n(C2CCCC2)c1=O [CPD-18, 2-((5-(2-(4-(6-((6-Acetyl-8-cyclopentyl-5-methyl-7-oxo-7,8-dihydropyrido[2,3-d]pyrimidin-2-yl)amino)pyridin-3-yl)piperazin-1-yl)acetamido)pentyl)amino)-N-(6-(dimethylamino)pyridazin-3-yl)-6-(isopropylamino)nicotinamide] | ≤ 50 nM | < 50 nM | 50 to 80% | 50 to 80% | ≤ 10 nM

The remaining lines, values ahead:

Row | IC50 [1] | IC50 [2] | inhibition at 0.04 µM [3] | inhibition at 0.2 µM [3] | IC50 [4] | Structure (SMILES)
6 | ≤ 50 nM | < 50 nM | 50 to 80% | 50 to 80% | ≤ 10 nM | CNc1ccc(C(=O)Nc2ccc(N(C)C)nn2)c(NC2CC(CNC(=O)CN3CCN(c4ccc(Nc5ncc6c(C)c(C(C)=O)c(=O)n(C7CCCC7)c6n5)nc4)CC3)C2)n1 (stereo not drawn) [CPD-79, 2-((3-((2-(4-(6-((6-Acetyl-8-cyclopentyl-5-methyl-7-oxo-7,8-dihydropyrido[2,3-d]pyrimidin-2-yl)amino)pyridin-3-yl)piperazin-1-yl)acetamido)methyl)cyclobutyl)amino)-N-(6-(dimethylamino)pyridazin-3-yl)-6-(methylamino)nicotinamide]
7 | ≤ 50 nM | < 50 nM | > 80% | > 80% | ≤ 10 nM | CNc1ccc(C(=O)Nc2ccc(N(C)C)nn2)c(NC2CC(CCNC(=O)CN3CCN(c4ccc(Nc5ncc6c(C)c(C(C)=O)c(=O)n(C7CCCC7)c6n5)nc4)CC3)C2)n1 (stereo not drawn) [CPD-34, 2-((3-(2-(2-(4-(6-((6-Acetyl-8-cyclopentyl-5-methyl-7-oxo-7,8-dihydropyrido[2,3-d]pyrimidin-2-yl)amino)pyridin-3-yl)piperazin-1-yl)acetamido)ethyl)cyclobutyl)amino)-N-(6-(dimethylamino)pyridazin-3-yl)-6-(methylamino)nicotinamide]
8 | ≤ 50 nM | < 50 nM | 50 to 80% | > 80% | ≤ 10 nM | CC(=O)c1c(C)c2cnc(Nc3ccc(N4CCN(CC(=O)NCCCCCCCNc5nc(C)ccc5C(=O)Nc5ccc(N(C)C)nn5)CC4)cn3)nc2n(C2CCCC2)c1=O [CPD-8, 2-((7-(2-(4-(6-((6-acetyl-8-cyclopentyl-5-methyl-7-oxo-7,8-dihydropyrido[2,3-d]pyrimidin-2-yl)amino)pyridin-3-yl)piperazin-1-yl)acetamido)heptyl)amino)-N-(6-(dimethylamino)pyridazin-3-yl)-6-methylnicotinamide]
9 | ≤ 50 nM | > 100 nM | 50 to 80% | 50 to 80% | ≤ 10 nM | CNc1ccc(C(=O)Nc2ccc(N(C)C)nn2)c(NC2CC3(C2)CN(C(=O)C2(CN4CCN(c5ccc(Nc6ncc7c(C)c(C(C)=O)c(=O)n(C8CCCC8)c7n6)nc5)CC4)CC2)C3)n1 [CPD-115, 2-((2-(1-((4-(6-((6-Acetyl-8-cyclopentyl-5-methyl-7-oxo-7,8-dihydropyrido[2,3-d]pyrimidin-2-yl)amino)pyridin-3-yl)piperazin-1-yl)methyl)cyclopropane-1-carbonyl)-2-azaspiro[3.3]heptan-6-yl)amino)-N-(6-(dimethylamino)pyridazin-3-yl)-6-(methylamino)nicotinamide]
